The text below walks through data of PubChem BioAssay (NCI).

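Results reflect a 48-hour exposure of cells in 96-well plates to compound at five concentrations. Here, GI50 denotes the concentration required for 50% inhibition of growth. At the TGI there is no net growth.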

Among the test systems are EKVX NSCLC; SK-MEL-28 melanoma; OVCAR-8 ovarian; NCI-H522 lung; NCI/ADR-RES ovarian; NCI-H226 lung; M14 melanoma; LOX IMVI melanoma; BT-549 breast; OVCAR-5 ovarian.
Holding throughout (test): inhibition of tumour cell growth, NCI panel, 48 h

Consider `Cc1cc(N2CCN(C)CC2)nc(NC2CCCC(Nc3ccnc4cc(Cl)ccc34)C2)n1` (stereo not given), for which the GI50 in the assay with EKVX NSCLC is 2.81 µM; in the assay with SK-MEL-28 melanoma it was 1.8 µM; in the assay on OVCAR-8 ovarian it was 3.75 µM; with NCI-H522 lung, 2.29 µM; with NCI/ADR-RES ovarian it was 3.34 µM; in the assay with NCI-H226 lung it was 3.01 µM. For the same compound, the GI50 is 1.7 µM in the assay with M14 melanoma, 1.77 µM in the assay with LOX IMVI melanoma, 2.08 µM in the assay on BT-549 breast and 2.88 µM in the assay on OVCAR-5 ovarian. In addition, the TGI with EKVX NSCLC came out at 12.5 µM; in the assay with SK-MEL-28 melanoma, 3.7 µM; with OVCAR-8 ovarian it was 15.5 µM; in the assay on NCI-H522 lung, 5.3 µM; in the assay with NCI/ADR-RES ovarian, 13.3 µM; with NCI-H226 lung it was 10.3 µM. Also, the TGI came out at 3.46 µM in the assay on M14 melanoma, 3.53 µM in the assay on LOX IMVI melanoma, 5.76 µM in the assay on BT-549 breast and 9.88 µM in the assay with OVCAR-5 ovarian.
As to `O=C1/C(=C\c2ccccc2)c2ccccc2N1Cc1ccccc1`, the TGI with EKVX NSCLC was found to be 17.1 µM; in the assay with SK-MEL-28 melanoma it was 15.7 µM; in the assay on OVCAR-8 ovarian, 19 µM; with NCI-H522 lung, 22 µM; in the assay with NCI/ADR-RES ovarian it was 19.2 µM; in the assay on NCI-H226 lung, 35.6 µM. Besides, the TGI with M14 melanoma was found to be 23.9 µM; in the assay on LOX IMVI melanoma, 17 µM; in the assay with BT-549 breast, 14.2 µM; in the assay with OVCAR-5 ovarian it was 15.2 µM.
On to `COc1cc2cc(C(=O)O)[nH]c2cc1OCc1ccccc1`, for which the GI50 in the assay on EKVX NSCLC is greater than 100 µM; with SK-MEL-28 melanoma, 53.5 µM; in the assay on OVCAR-8 ovarian, greater than 100 µM; with NCI-H522 lung it was greater than 100 µM; with NCI/ADR-RES ovarian it was greater than 100 µM; in the assay with NCI-H226 lung, greater than 100 µM. The GI50 with M14 melanoma, in the assay on LOX IMVI melanoma, in the assay on BT-549 breast and with OVCAR-5 ovarian was greater than 100 µM in each case. Besides, the TGI in the assay on EKVX NSCLC, with SK-MEL-28 melanoma, in the assay with OVCAR-8 ovarian, in the assay on NCI-H522 lung, with NCI/ADR-RES ovarian and in the assay with NCI-H226 lung was greater than 100 µM throughout. Further, the TGI in the assay with M14 melanoma, with LOX IMVI melanoma, with BT-549 breast and in the assay with OVCAR-5 ovarian was greater than 100 µM in each case.
Turning to `NC(C(=O)O)C(N)C(=O)O` (stereo not given), the TGI in the assay on EKVX NSCLC, in the assay on SK-MEL-28 melanoma, with OVCAR-8 ovarian, in the assay with NCI-H522 lung, with NCI/ADR-RES ovarian and with NCI-H226 lung was greater than 100 µM throughout. Moreover, the TGI with M14 melanoma, in the assay with LOX IMVI melanoma, with BT-549 breast and in the assay with OVCAR-5 ovarian was greater than 100 µM each time.
